One test concerns the target T1, δ opioid receptors (Mus musculus, UniProt P32300).
T1 construct: electrically evoked contractions of the mouse vas deferens (MVD); from tissue; host or cells: isolated mouse vas deferens
Briefly: MVD assay: antagonism of δ agonist inhibition of electrically evoked contractions of the mouse vas deferens. The conditions noted are these: comparison with the patent's best compounds. From the text: Biosassys based on inhibition of electrically evoked contractions of the mouse vas deferens (MVD) and of the guinea pig ileum (GPI). In the GPI assay the opioid effect is primarily mediated by μ opioid receptors, whereas in the MVD assay the inhibition of the contractions is mostly due to interaction with δ opioid receptors. Antagonist potencies in these assays are expressed as so-called Ke -values (H. W. Kosterlitz & A. J. Watt, Br. J. Pharmacol. 33, 266-276 (1968)).
The GPI and MVD bioassays were carried out as reported in P. W. Schiller et al Biochem. Biophys. Res. Commun 85, 1332-1338 (1978) and J. DiMaio et al, J. Med. Chem 25 1432-1438 (1982). A log dose-response curve was determind with [Leu^5 ]enkephalin as standard for each ileum and vas preparation, and IC50 values of the compounds being tested were normalized according to A. A Waterfield et al Eur. J. Pharmacod 58, 11-18 (1979). Ke values for the TIPP-related antagonists were determind from the ratio of IC50 values (DR) obtained in the presence and absence of a fixed antagonist concentration (a) (Ke =a/(DR-1) H. W. Kosterlitz & A. J. Watt, Br. J. Pharmacol. 33, 266-276 (1968). These determinations were made with the MVD assay, using three different δ -selective agonists ([Leu^5 ] enkephalin, DPDPE and [D-Ala^2 ]deltorphin I.

The next test addresses T2, δ opioid receptor (Rattus norvegicus, UniProt P33533).
T2 construct: from tissue; host or cells: rat brain (without cerebellum) membranes, Sprague-Dawley
The test is described as follows: δ opioid receptor binding assay, displacement of δ-selective radioligand from rat brain membranes. Particulars: for Ki^μ /Ki^δ (δ-selectivity): ratio of μ and δ binding constants. From the text: (§1) In the case of κ-ligands guinea pig brain homogenates were used, since the relative proportion of κ-binding sites is higher in guinea pig brain than in rat brain. The experimental procedure being used in our laboratory represents a modified version of the binding assay described by Pastemak et al. (Mol. Pharmacol. 11,340-351, (1975)). Male Sprague-Dawley rats (300-350 g) from the Canadian Breeding Laboratories were decapitated and after removal of the cerebellum the brains were homogenized in 30 volumes of ice-cold standard buffer (50 mM Tris-HCl, pH 7.7). After centrifugation at 30,000×g for 30 min at 4° C. the membranes were reconstituted in the original volume of standard buffer and incubated for 30 min at 37° C. (to release bound endogenous ligands). […] The incubation was terminated by filtration through Whatman GF/B filters under vacuum at 4° C. Following two washings with 5 ml portions of ice-cold standard buffer the filters were transferred to scintillation vials and treated with 1 ml Protosol (New England Nuclear) for 30 min prior to the addition of 0.5 ml acetic acid and 10 ml Aquasol (New England Nuclear). After shaking for 30 min the vials were counted at an efficiency of 40-45%. All experiments were performed in duplicates and repeated at least three times. […] Values of half-maximal inhibition (IC50) of specific binding were obtained graphically from semilogarithmic plots.

A further test addresses T3, μ opioid receptor (Rattus norvegicus, UniProt P33535).
T3 construct: from tissue; host or cells: rat brain (without cerebellum) membranes, Sprague-Dawley
The test is described as follows: μ opioid receptor binding assay, displacement of [3H]DAMGO from rat brain membranes.
Description: as §1
On the technique in general: In a radioligand displacement assay an active substance lowers the binding of a labelled ligand.

The target in test [1] is T4, μ opioid receptors (Cavia porcellus, UniProt P97266). The test is described as follows: GPI assay: inhibition of electrically evoked contractions of the guinea pig ileum. Particulars: read-out: IC50 (μ agonist potency) in the GPI assay. From the text: In the GPI assay the opioid effect is primarily mediated by μ opioid receptors, whereas in the MVD assay the inhibition of the contractions is mostly due to interaction with δ opioid receptors.
T4 sequence (P97266 whole entry, looked up): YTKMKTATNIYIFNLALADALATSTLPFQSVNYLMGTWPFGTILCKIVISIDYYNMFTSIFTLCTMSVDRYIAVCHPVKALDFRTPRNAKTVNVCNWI

The target in test [2] is T4, μ opioid receptors. The conditions noted are these: literature value, Portoghese J. Med. Chem. 34, 1757 (1991); cited from earlier work.

Peptide text beside a SMILES is read from it.

T2 sequence (P33533 whole entry): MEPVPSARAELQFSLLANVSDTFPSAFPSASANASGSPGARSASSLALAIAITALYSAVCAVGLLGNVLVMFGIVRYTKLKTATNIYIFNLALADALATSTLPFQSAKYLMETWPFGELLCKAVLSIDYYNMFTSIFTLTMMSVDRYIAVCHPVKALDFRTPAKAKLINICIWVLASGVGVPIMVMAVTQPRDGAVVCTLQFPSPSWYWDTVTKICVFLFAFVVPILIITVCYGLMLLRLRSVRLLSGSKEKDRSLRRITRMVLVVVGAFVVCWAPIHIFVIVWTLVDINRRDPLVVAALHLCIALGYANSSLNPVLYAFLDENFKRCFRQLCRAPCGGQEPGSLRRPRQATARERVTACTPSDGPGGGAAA
T3 sequence (P33535 whole entry): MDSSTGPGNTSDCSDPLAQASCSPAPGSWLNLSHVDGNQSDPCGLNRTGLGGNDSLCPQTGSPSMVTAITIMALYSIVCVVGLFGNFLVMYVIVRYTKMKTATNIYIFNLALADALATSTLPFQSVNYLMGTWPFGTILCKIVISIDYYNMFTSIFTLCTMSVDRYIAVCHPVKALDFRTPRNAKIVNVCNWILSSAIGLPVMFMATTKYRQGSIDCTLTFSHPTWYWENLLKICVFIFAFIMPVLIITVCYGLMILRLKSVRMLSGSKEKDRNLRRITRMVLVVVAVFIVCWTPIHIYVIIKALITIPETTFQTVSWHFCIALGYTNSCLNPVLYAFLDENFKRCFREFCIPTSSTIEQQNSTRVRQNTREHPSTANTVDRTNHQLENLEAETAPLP
T1 sequence (P32300 whole entry): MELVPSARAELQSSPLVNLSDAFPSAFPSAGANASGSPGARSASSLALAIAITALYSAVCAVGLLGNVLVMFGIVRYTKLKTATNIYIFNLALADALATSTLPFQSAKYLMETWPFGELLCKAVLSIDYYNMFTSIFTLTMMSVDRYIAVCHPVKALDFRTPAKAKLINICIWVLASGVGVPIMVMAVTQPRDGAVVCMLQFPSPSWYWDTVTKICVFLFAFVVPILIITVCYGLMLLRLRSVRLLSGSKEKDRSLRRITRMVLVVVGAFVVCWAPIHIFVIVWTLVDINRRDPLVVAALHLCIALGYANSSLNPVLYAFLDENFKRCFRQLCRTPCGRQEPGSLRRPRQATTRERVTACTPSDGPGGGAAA

On to `C=CCN(CC=C)[C@@H](Cc1ccc(O)cc1)C(=O)NC(C)(C)C(=O)NC(C)(C)C(=O)N[C@@H](Cc1ccccc1)C(=O)N[C@@H](CC(C)C)C(=O)O` [ICI 174864, N,N--diallyl--Tyr--Aib--Aib--Phe--Leu--OH, reference compound] (HELM PEPTIDE1{[C=CCN(CC=C)[C@@H](Cc1ccc(O)cc1)C(=O)[*:2]].[Aib].[Aib].F.L}$$$$V2.0), for which the “antagonist potency in the MVD assay compared with the most potent and selective δ antagonists of the patent” value at δ opioid receptors is 20 times less potent. Also, the “δ-selectivity compared with the most potent and selective δ antagonists of the patent” value at δ opioid receptor (comparison with the patent's best compounds) amounted to 40 times less.
Usually Ki stands for the equilibrium dissociation constant of an inhibitor or competing ligand from its target. A lower Ki goes with higher affinity. At μ opioid receptor, `NC(=O)[C@H](Cc1c[nH]c2ccccc12)NC(=O)[C@H](Cc1ccccc1)NC(=O)[C@@H]1Cc2ccccc2CN1C(=O)[C@@H](N)Cc1ccc(O)cc1` [H--Tyr--Tic--Phe--Trp--NH2] (HELM PEPTIDE1{Y.[Tic].F.W.[am]}$$$$V2.0) registered a Ki of 312 ± 75 nM. For the same molecule, at δ opioid receptor, the inhibition constant Ki turned out to be 1.21 ± 0.19 nM and the “Ki^μ /Ki^δ (δ-selectivity)” value was 258.
The term IC50 denotes the concentration needed to halve the response being measured. Regarding `NC(=O)[C@H](Cc1ccccc1)NC(=O)[C@H](Cc1ccccc1)NC(=O)[C@@H]1Cc2ccccc2CN1C(=O)[C@@H](N)Cc1ccc(O)cc1` [H--Tyr--Tic--Phe--Phe--NH2] (HELM PEPTIDE1{Y.[Tic].F.F.[am]}$$$$V2.0), the IC50 at μ opioid receptors [1] stood at 1700 ± 220 nM. For the same molecule, on δ opioid receptor, the “Ki^μ /Ki^δ (δ-selectivity)” value was found to be 26.3.
The molecule `Oc1ccc2c3c1O[C@H]1c4[nH]c5ccccc5c4C[C@@]4(O)[C@@H](C2)N(CC2CC2)CC[C@]314` [Naltrindole, naltrindole, reference compound] showed a Ki on δ opioid receptor of 0.687 ± 0.1 nM. Besides, the “Ke (antagonist properties) in the guinea pig ileum (GPI) assay” value at μ opioid receptors [2] is 29 nM.
The molecule `N[C@@H](Cc1ccc(O)cc1)C(=O)N1Cc2ccccc2C[C@H]1C(=O)N[C@@H](Cc1c[nH]c2ccccc12)C(=O)N[C@@H](Cc1ccccc1)C(=O)O` [H--Tyr--Tic--Trp--Phe--OH] (HELM PEPTIDE1{Y.[Tic].W.F}$$$$V2.0) came in with a Ki at μ opioid receptor of 1790 ± 380 nM. Further, on δ opioid receptor, the affinity corresponds to a Ki of 0.301 ± 0.042 nM and the “Ki^μ /Ki^δ (δ-selectivity)” value is on record as 5950.
`N[C@@H](Cc1ccc(O)cc1)C(=O)N1Cc2ccccc2C[C@H]1C(=O)N[C@@H](Cc1ccccc1)C(=O)N[C@@H](Cc1ccc([N+](=O)[O-])cc1)C(=O)O` [H--Tyr--Tic--Phe--Phe(p-NO2)--OH] (HELM PEPTIDE1{Y.[Tic].F.[O=C(O)[C@H](Cc1ccc([N+](=O)[O-])cc1)N[*:1]]}$$$$V2.0) yielded a Ki at μ opioid receptor of 2890 ± 660 nM. Also, at δ opioid receptor, the affinity corresponds to a Ki of 0.703 ± 0.099 nM and the “Ki^μ /Ki^δ (δ-selectivity)” value is 4110.
On the same counts, the results for `N[C@@H](Cc1ccc(O)cc1)C(=O)N1Cc2ccccc2C[C@H]1C(=O)N[C@@H](Cc1c[nH]c2ccccc12)C(=O)N[C@@H](Cc1ccc([N+](=O)[O-])cc1)C(=O)O` [H--Tyr--Tic--Trp--Phe(p-NO2)--OH] (HELM PEPTIDE1{Y.[Tic].W.[O=C(O)[C@H](Cc1ccc([N+](=O)[O-])cc1)N[*:1]]}$$$$V2.0) are 1520 ± 42 nM, 0.33 ± 0.004 nM and 4610.
As for `N[C@@H](Cc1ccc(O)cc1)C(=O)N1Cc2ccccc2C[C@H]1C(=O)N[C@@H](Cc1ccccc1)C(=O)O` [H--Tyr--Tic--Phe--OH] (HELM PEPTIDE1{Y.[Tic].F}$$$$V2.0), at δ opioid receptor, the “Ki^μ /Ki^δ (δ-selectivity)” value is recorded as 141.
At μ opioid receptor, `NC(=O)[C@H](Cc1ccccc1)NC(=O)[C@@H]1Cc2ccccc2CN1C(=O)[C@@H](N)Cc1ccc(O)cc1` [H--Tyr--Tic--Phe--NH2] (HELM PEPTIDE1{Y.[Tic].F.[am]}$$$$V2.0) showed a Ki of 624 ± 79 nM. Moreover, on δ opioid receptor, the Ki came out at 12 ± 1.3 nM and the “Ki^μ /Ki^δ (δ-selectivity)” value came out at 52.0.
In the same order, the values of `NC(=O)[C@H](Cc1ccccc1)NC(=O)[C@H](Cc1c[nH]c2ccccc12)NC(=O)[C@@H]1Cc2ccccc2CN1C(=O)[C@@H](N)Cc1ccc(O)cc1` [H--Tyr--Tic--Trp--Phe--NH2] (HELM PEPTIDE1{Y.[Tic].W.F.[am]}$$$$V2.0) are 176 ± 21 nM, 0.248 ± 0.009 nM and 709.
